Measurements: US11214561B2, “Histone methyltransferase EZH2 inhibitor, preparation method and pharmaceutical use thereof” (ANCUREALL PHARMACEUTICAL (SHANGHAI) CO., LTD., priority 2017, dated 2022)

Experiments:
Karpas-422 (EZH2 Y641N) = assay: In vitro 50% growth inhibition (GI50), MTT/CCK8, Karpas-422 cells; format: cell-based; conditions: Homo sapiens, KARPAS-422, 144 h; Drug treatment for 6 days
[1] = system: Pfeiffer cells (EZH2 A677G); assay: Compound washout effect on in vitro growth of Pfeiffer cells (irreversible inhibition); format: cell-based, Human; conditions: for Pfeiffer cells growth rate (%) (10 days), Continuous: continuous treatment; for Pfeiffer cells growth rate (%) (10 days), Washout: washout after 12 h
Experimental: The test of the compound washout effect on the in vitro growth inhibition of human diffuse large cell B lymphoma lymphocyte Pfeiffer (ATCC) expressing EZH2 A677G mutant protein was performed as follows.
Log-phase Pfeiffer cells were centrifuged directly (1700 rpm, 3 min), and the supernatant was discarded and the cells were counted. Cells were prepared with the complete medium (2×10^4 cells per ml), inoculated to 96-well plates (Corning), 200 μl per well, and incubated overnight at 37° C., 5% CO2. […] The cells were further cultured for 12 h. The cells in half of the test wells were then collected by centrifugation (parallel to 2 wells), and washed three times with serum-free cell culture medium, and then resuspended in a same volume of complete cell culture medium (200 μl). It was further cultured together with the untreated cells for 10 days at 37° C., 5% CO2.

## C=CC(=O)N1CCC(N(CC)c2cc(-c3ccc(CN4CCCCC4)cc3)cc(C(=O)NCc3c(C)cc(C)[nH]c3=O)c2C)CC1 [Example 34, N-(4,6-dimethyl-2-oxo-1,2-dihydro-pyridin-3-ylmethyl)-5-[(1-acryloyl-piperidin-4-yl)-ethyl-amino]-4-methyl-4′-(piperidin-1-ylmethyl)-[1,1′-biphenyl]-3-carboxamide]
Karpas-422 (EZH2 Y641N)
  GI50: 10 to 100 nM
[1]; Drug concentration 25 nM
  Pfeiffer cells growth rate (%) (10 days), Continuous: 0%
  Pfeiffer cells growth rate (%) (10 days), Washout: 0%
[1]; Drug concentration 50 nM
  Pfeiffer cells growth rate (%) (10 days), Continuous: 0%
  Pfeiffer cells growth rate (%) (10 days), Washout: 0%
[1]; Drug concentration 100 nM
  Pfeiffer cells growth rate (%) (10 days), Continuous: 0%
  Pfeiffer cells growth rate (%) (10 days), Washout: 0%
[1]; washout treatment of Pfeiffer cells
  reversibility of inhibitory effect on cell growth in vitro, in words: potential irreversible inhibitory effect
